One may read the IC50 as the concentration that gives 50% inhibition. Low values mean higher potency, high ones lower potency.

Molecules are shown by their SMILES. Values after ≈ are worked out from the molar mass of the structure shown. Where two headings read alike, the source gives them in different places. Starred links: 1 amine or outer side, 2 acyl side, 3 side chain; linkers in the order of their positions; H or OH if unused. Non-standard residues stand in square brackets, D forms with d. Residues, ends and D or L forms follow the SMILES beside them. Groups on a side chain read outwards from the residue. *: point of attachment. X8 = O=C(CCc1c[nH]c2ccccc12)Oc1ccc(C[C@H](N[*:1])C(=O)[*:2])cc1[N+](=O)[O-]; X11 = COC(=O)[C@H](Cc1c[nH]cn1)NC(=O)[C@@H](C)C[C@@H](C(=O)[*:2])N(C)[*:1]; X10 = CC[C@H](C)[C@H](NC(=O)[C@@H](C)C[C@@H](C(=O)[*:2])N(C)[*:1])C(=O)OC; X13 = C[C@@H](C[C@@H](C(=O)[*:2])N(C)[*:1])C(=O)NCc1ccc(C(F)(F)F)cc1; Trp(1-(1,1-Me2-allyl)) = C=CC(C)(C)n1cc(C[C@H](N)C(=O)O)c2ccccc21; NMeGlu(4S-Me) = C[C@@H](C[C@@H](C(=O)[*:2])N(C)[*:1])C(=O)[*:3]; X6 = C[C@@H](C[C@@H](C(=O)[*:2])N(C)[*:1])C(=O)NNC(=O)c1ccncc1; Tyr(3-NO2) = N[C@@H](Cc1ccc(O)c([N+](=O)[O-])c1)C(=O)O; X7 = O=C1O[C@@H](CN*)CN1c1ccc(N2CCOCC2)c(F)c1; Gly(E-crotyl) = C/C=C/C[C@H](N)C(=O)O; NMeL = CN[C@@H](CC(C)C)C(=O)O

For nine compounds, IC50 and MIC results are on record in paper PMC8586704 (Frontiers in Chemistry, 2021).

For one assay, the system named is HepG2. Description: cells. The note with it: Homo sapiens, hepatocellular carcinoma cell line. The assay is classed as cell-based.
For a further assay, the system named is HeLa. Description: cells. The assay is classed as cell-based. The conditions noted are these: Homo sapiens, cervical carcinoma cell line.
For another assay, the system named is Huvec-12. Description: Cytotoxicity assay (CCK-8). The assay is classed as cell-based. The note with it: normal human umbilical vein endothelial cell line.
A further assay has as its system MCF-7. In words: cells. The conditions noted are these: Homo sapiens, MCF7; breast adenocarcinoma cell line. The format is cell-based.
A further assay concerns M. tuberculosis H37Rv. Description: Antitubercular activity assay, broth dilution, auto-luminescent strain. The assay is classed as cell-based, Mycobacterium tuberculosis. On the technique in general: Dilution methods test growth across graded concentrations, often in twofold steps.
The test system of a further assay is A549. Description: Cytotoxicity assay (CCK-8). The assay is classed as cell-based. The conditions noted are these: Homo sapiens, lung cancer cell line.
The next assay has as its system L02. In words: cells. The format is cell-based. The conditions noted are these: normal human hepatic cell line.
The subject of a further assay is HCT116. Description: cells. The assay is classed as cell-based. The note with it: Homo sapiens, HCT-116; colon cancer cell line.
The mark [1] stands for this setting: Mycobacterium tuberculosis, H37RV, Day 3rd, read-out: MICs against H37Rv, Day 3rd.
Setting [2] is: Mycobacterium tuberculosis, H37RV, Day 7th, read-out: MICs against H37Rv, Day 7th.
Setting [3] is: Mycobacterium tuberculosis, H37RV, Day 14th, read-out: MICs against H37Rv, Day 14th.
[4] abbreviates: Mycobacterium tuberculosis, H37RV, read-out: MICs against H37Rv, Day 3rd.
The mark [5] stands for this setting: Mycobacterium tuberculosis, H37RV, read-out: MICs against H37Rv, Day 7th.
The mark [6] stands for this setting: Mycobacterium tuberculosis, H37RV, read-out: MICs against H37Rv, Day 14th.

On to `C=CC(C)(C)n1cc(C[C@@H]2NC(=O)[C@H](C/C=C/C)NC(=O)[C@H](CC(C)C)NC(=O)[C@H](C[C@H](C)C(=O)N[C@@H](Cc3ccccc3)C(=O)OC)N(C)C(=O)[C@H](C)NC(=O)[C@H](Cc3ccc(O)c([N+](=O)[O-])c3)NC(=O)[C@H](CC(C)C)N(C)C2=O)c2ccccc21` [Compound 7, ilamycin NJL7] (cyclo(A[NMeGlu(4S-Me)]([Phe-OMe])L[Gly(E-crotyl)][Trp(1-(1,1-Me2-allyl))][NMeL][Tyr(3-NO2)])), for which the IC50 in the assay on HepG2, in the assay with HeLa, in the assay with Huvec-12, in the assay with MCF-7, in the assay with A549 and in the assay on L02 was above 50 µM throughout. The IC50 in the assay with HCT116 was above 50 µM. For the same compound, the MIC with M. tuberculosis H37Rv (setting [1]) is 26.6 µM (≈ 32 µg/mL); in the assay with M. tuberculosis H37Rv (setting [2]), 13.3 µM (≈ 16 µg/mL); in the assay on M. tuberculosis H37Rv (setting [3]), 6.6 µM (≈ 7.94 µg/mL).

Turning to `C=CC(C)(C)n1cc(C[C@@H]2NC(=O)[C@H](C/C=C/C)NC(=O)[C@H](CC(C)C)NC(=O)[C@H](C[C@H](C)C(=O)N[C@H](C(=O)OC)[C@@H](C)CC)N(C)C(=O)[C@H](C)NC(=O)[C@H](Cc3ccc(O)c([N+](=O)[O-])c3)NC(=O)[C@H](CC(C)C)N(C)C2=O)c2ccccc21` [Compound 3, ilamycin NJL3] (cyclo(A[X10]L[Gly(E-crotyl)][Trp(1-(1,1-Me2-allyl))][NMeL][Tyr(3-NO2)])), the IC50 with HepG2 was above 50 µM; in the assay with HeLa, 14.5 µM; in the assay with Huvec-12, above 50 µM; in the assay with MCF-7, above 50 µM; in the assay on A549 it was above 50 µM; with L02, 12 µM. Moreover, in the assay with HCT116, the IC50 was above 50 µM. Further, the MIC in the assay with M. tuberculosis H37Rv (setting [1]), with M. tuberculosis H37Rv (setting [2]) and in the assay on M. tuberculosis H37Rv (setting [3]) was 6.8 µM (≈ 7.95 µg/mL) throughout.

For `C=CC(C)(C)n1cc(C[C@@H]2NC(=O)[C@H](C/C=C/C)NC(=O)[C@H](CC(C)C)NC(=O)[C@H](C[C@H](C)C(=O)NC[C@H]3CN(c4ccc(N5CCOCC5)c(F)c4)C(=O)O3)N(C)C(=O)[C@H](C)NC(=O)[C@H](Cc3ccc(O)c([N+](=O)[O-])c3)NC(=O)[C@H](CC(C)C)N(C)C2=O)c2ccccc21` [Compound 14, ilamycin NJL14] (cyclo(A[NMeGlu(4S-Me)](X7)L[Gly(E-crotyl)][Trp(1-(1,1-Me2-allyl))][NMeL][Tyr(3-NO2)])), the IC50 in the assay on HepG2, with HeLa, in the assay with Huvec-12, in the assay with MCF-7, with A549 and in the assay with L02 was above 50 µM each time. In the assay on HCT116, this compound displayed an IC50 above 50 µM. Further, the MIC with M. tuberculosis H37Rv (setting [4]), in the assay on M. tuberculosis H37Rv (setting [5]) and in the assay with M. tuberculosis H37Rv (setting [6]) was 48.5 µM (≈ 64 µg/mL) in each case.

With `C=CC(C)(C)n1cc(C[C@@H]2NC(=O)[C@H](C/C=C/C)NC(=O)[C@H](CC(C)C)NC(=O)[C@H](C[C@H](C)C(=O)NCc3ccc(C(F)(F)F)cc3)N(C)C(=O)[C@H](C)NC(=O)[C@H](Cc3ccc(O)c([N+](=O)[O-])c3)NC(=O)[C@H](CC(C)C)N(C)C2=O)c2ccccc21` [Compound 12, ilamycin NJL12] (cyclo(A[X13]L[Gly(E-crotyl)][Trp(1-(1,1-Me2-allyl))][NMeL][Tyr(3-NO2)])), the IC50 in the assay on HepG2, with HeLa, with Huvec-12, in the assay on MCF-7, in the assay with A549 and in the assay on L02 was above 50 µM in each case. The compound also returned a concentration for half-maximal inhibition (IC50) in the assay with HCT116 above 50 µM. The MIC in the assay on M. tuberculosis H37Rv (setting [4]), with M. tuberculosis H37Rv (setting [5]) and in the assay on M. tuberculosis H37Rv (setting [6]) was above 100 µM each time.

Take `C=CC(C)(C)n1cc(C[C@@H]2NC(=O)[C@H](C/C=C/C)NC(=O)[C@H](CC(C)C)NC(=O)[C@H](C[C@H](C)C(=O)N[C@@H](Cc3c[nH]cn3)C(=O)OC)N(C)C(=O)[C@H](C)NC(=O)[C@H](Cc3ccc(O)c([N+](=O)[O-])c3)NC(=O)[C@H](CC(C)C)N(C)C2=O)c2ccccc21` [Compound 5, ilamycin NJL5] (cyclo(A[X11]L[Gly(E-crotyl)][Trp(1-(1,1-Me2-allyl))][NMeL][Tyr(3-NO2)])): the IC50 in the assay on HepG2, with HeLa, in the assay with Huvec-12, in the assay on MCF-7, in the assay with A549 and in the assay with L02 was above 50 µM in each case. In the assay with HCT116, this compound registered an IC50 above 50 µM. Moreover, the MIC with M. tuberculosis H37Rv (setting [1]), in the assay on M. tuberculosis H37Rv (setting [2]) and in the assay with M. tuberculosis H37Rv (setting [3]) was 26.8 µM (≈ 32 µg/mL) each time.

For `C=CC(C)(C)n1cc(C[C@@H]2NC(=O)[C@H](C/C=C/C)NC(=O)[C@H](CC(C)C)NC(=O)[C@H](C[C@H](C)C(=O)N[C@@H](Cc3ccc(O)cc3)C(=O)OC)N(C)C(=O)[C@H](C)NC(=O)[C@H](Cc3ccc(O)c([N+](=O)[O-])c3)NC(=O)[C@H](CC(C)C)N(C)C2=O)c2ccccc21` [Compound 8, ilamycin NJL8] (cyclo(A[NMeGlu(4S-Me)]([Tyr-OMe])L[Gly(E-crotyl)][Trp(1-(1,1-Me2-allyl))][NMeL][Tyr(3-NO2)])), the IC50 in the assay with HepG2, in the assay on HeLa, in the assay with Huvec-12, in the assay with MCF-7, with A549 and in the assay with L02 was above 50 µM throughout. Further, the IC50 in the assay with HCT116 is above 50 µM. Further, the MIC in the assay on M. tuberculosis H37Rv (Day 3rd, read-out: MICs against H37Rv, Day 3rd) is 1.6 µM (≈ 1.95 µg/mL); in the assay on M. tuberculosis H37Rv (Day 14th, read-out: MICs against H37Rv, Day 14th) it was 1.6 µM (≈ 1.95 µg/mL); in the assay on M. tuberculosis H37Rv (setting [1]), 1.6 to 3.5 µM (≈ 1.95 to 4.27 µg/mL); with M. tuberculosis H37Rv (setting [2]), 1.6 µM (≈ 1.95 µg/mL); in the assay on M. tuberculosis H37Rv (setting [3]), 1.6 to 1.7 µM (≈ 1.95 to 2.07 µg/mL).

`COc1cccc2c1C(=O)c1c(O)c3c(c(O)c1C2=O)C[C@@](O)(C(=O)CO)C[C@@H]3O[C@H]1C[C@H](N)[C@H](O)[C@H](C)O1` [doxorubicin, reference compound]: the IC50 in the assay on HepG2 amounted to 0.6 µM; in the assay on HeLa, 0.7 µM; with Huvec-12, 12 µM; with MCF-7 it was 4 µM; in the assay with A549 it was 1.5 µM; in the assay on L02 it was 7.7 µM. The IC50 in the assay with HCT116 is 4 µM.

As for `C=CC(C)(C)n1cc(C[C@@H]2NC(=O)[C@H](C/C=C/C)NC(=O)[C@H](CC(C)C)NC(=O)[C@H](C[C@H](C)C(=O)NNC(=O)c3ccncc3)N(C)C(=O)[C@H](C)NC(=O)[C@H](Cc3ccc(O)c([N+](=O)[O-])c3)NC(=O)[C@H](CC(C)C)N(C)C2=O)c2ccccc21` [Compound 13, ilamycin NJL13] (cyclo(A[X6]L[Gly(E-crotyl)][Trp(1-(1,1-Me2-allyl))][NMeL][Tyr(3-NO2)])), the IC50 in the assay on HepG2, in the assay with HeLa, in the assay with Huvec-12, in the assay with MCF-7, with A549 and in the assay with L02 was above 50 µM throughout. Besides, in the assay on HCT116, the IC50 was above 50 µM. Also, the MIC with M. tuberculosis H37Rv (setting [4]), in the assay on M. tuberculosis H37Rv (setting [5]) and in the assay on M. tuberculosis H37Rv (setting [6]) was 27.6 µM (≈ 32.1 µg/mL) each time.

Turning to `C=CC(C)(C)n1cc(C[C@@H]2NC(=O)[C@H](C/C=C/C)NC(=O)[C@H](CC(C)C)NC(=O)[C@H](C[C@H](C)C(=O)O)N(C)C(=O)[C@H](C)NC(=O)[C@H](Cc3ccc(OC(=O)CCc4c[nH]c5ccccc45)c([N+](=O)[O-])c3)NC(=O)[C@H](CC(C)C)N(C)C2=O)c2ccccc21` [Compound 16, ilamycin NJL16] (cyclo(A[NMeGlu(4S-Me)]L[Gly(E-crotyl)][Trp(1-(1,1-Me2-allyl))][NMeL][X8])), the IC50 in the assay on HepG2, in the assay with HeLa, in the assay with Huvec-12, in the assay with MCF-7, in the assay on A549 and with L02 was above 50 µM throughout. Also, the IC50 in the assay with HCT116 is above 50 µM. Besides, the MIC in the assay on M. tuberculosis H37Rv (setting [1]), in the assay with M. tuberculosis H37Rv (setting [2]) and with M. tuberculosis H37Rv (setting [3]) was 26.4 µM (≈ 32 µg/mL) throughout.
